Reference: patent US10899700B2, “Process for the separation of long chain amino acids and dibasic acids” (Vitaworks IP, LLC, priority 2017, dated 2021)

Columns and labels:
[1] = Phase separation of hexylamine-water azeotrope distillate upon cooling; format: physicochemical; settings: aqueous phase after cooling and phase separation
Source text: For the production of 11-aminoundecanoic acid and dodecanedioic acid, hexylamine is one of the main products. Hexylamine is found to form an azeotrope with water and can be separated from the solution by azeotropic distillation. Upon cooling, the distillate separates into an upper phase of nearly pure hexylamine and an aqueous phase containing not more than 2% of hexylamine. Hexylamine can also be separated from the mixture by steam distillation or steam stripping. Complete separation is accomplished when the distillate at the overhead becomes nearly neutral at a pH of 7-8.

physchem = settings: aqueous buffer
[2] = Solubility of sodium salts in water, ethanol and aqueous ethanol (FIG. 8); format: physicochemical; settings: for solubility change of the sodium salt in aqueous ethanol (in words): aqueous ethanol versus water or ethanol; for solubility of the sodium salt in water and in ethanol (in words): both water and ethanol
Source text: FIG. 8. Solubility of 11-aminoundecanoic acid and dodecanedioic acid in aqueous ethanol solution of 2 M sodium hydroxide at different concentration of ethanol.
For example, FIG. 8 illustrates the solubility change of sodium salts of 11-aminoundecanoic acid and dodecanedioic acid in aqueous ethanol. […] This surprising finding renders the separation of these two salts possible.

[3] = Solubility of alkali salts in sodium hydroxide solution (FIG. 6, FIG. 7); format: physicochemical; settings: 2 M sodium hydroxide, about 50° C.
Description: FIG. 6. Solubility curve of 11-aminoundecanoic acid in water at neutral pH, 1 M solution of sulfuric acid, and 2 M solution of sodium hydroxide.
FIG. 7. Solubility curve of heptanoic acid in a 6 M solution of sodium hydroxide and dodecanedioic acid in a 3 M solution of sodium hydroxide.
When the hydrolysis reaction of mixed amide derivatives from the Beckmann rearrangement is performed in the presence of alkali hydroxide, main products other than alkylamine are obtained in the form of their alkali salts. It was observed that a starting suspension of the mixed amide derivatives in a solution of alkali hydroxide is changed to a clear solution at a temperature of 60° C. or above after the hydrolysis.
Since long chain amino acid, e.g., 11-aminoundecanoic acid, has relatively constant solubility, evaporative concentration of the mother liquor will result in the crystallization of inorganic salt, in particular, sodium sulfate, along with valuable long chain amino acid. […] This finding greatly facilitates the separation of inorganic salt, most preferably, sodium sulfate, and the recovery of long chain amino acids.
In an alkali hydroxide hydrolysis of the mixed amide derivatives, two mole equivalents of alkali hydroxide are required, but more than two equivalents, usually between 2.5 to 3 equivalents of alkali hydroxide are used to achieve a complete hydrolysis. […]

hexylamine content of the aqueous phase of the cooled azeotropic distillate [1] | solubility (physchem) | solubility change of the sodium salt in aqueous ethanol (in words) [2] | solubility of the sodium salt in water and in ethanol (in words) [2] | solubility of the alkali salt in 2 M solution of sodium hydroxide (in words) [3] | Structure (SMILES)
not more than 2% | – | – | – | – | CCCCCCN [hexylamine]
– | > 600 mg/mL | – | – | – | O=C(O)CCCCCCCC(=O)O [azelaic acid]
– | – | drastically increases the solubility | nearly insoluble | freely soluble | NCCCCCCCCCCC(=O)O [11-aminoundecanoic acid]
– | – | remains unchanged | nearly insoluble | – | O=C(O)CCCCCCCCCCC(=O)O [dodecanedioic acid]
